Assay results: the Kinase Knowledgebase extract (Sharma et al. 2016)

What was measured:
PIK3CA (human) [1] = molecular target: PIK3CA (human) (UniProt P42336); assay: Inhibition of PIK3CA Kinase Activity
PIK3CA (human) [2] = molecular target: PIK3CA (human) (UniProt P42336); assay: Inhibition of A2780 Cell Proliferation

Chain of PIK3CA (human) (P42336 whole entry, looked up): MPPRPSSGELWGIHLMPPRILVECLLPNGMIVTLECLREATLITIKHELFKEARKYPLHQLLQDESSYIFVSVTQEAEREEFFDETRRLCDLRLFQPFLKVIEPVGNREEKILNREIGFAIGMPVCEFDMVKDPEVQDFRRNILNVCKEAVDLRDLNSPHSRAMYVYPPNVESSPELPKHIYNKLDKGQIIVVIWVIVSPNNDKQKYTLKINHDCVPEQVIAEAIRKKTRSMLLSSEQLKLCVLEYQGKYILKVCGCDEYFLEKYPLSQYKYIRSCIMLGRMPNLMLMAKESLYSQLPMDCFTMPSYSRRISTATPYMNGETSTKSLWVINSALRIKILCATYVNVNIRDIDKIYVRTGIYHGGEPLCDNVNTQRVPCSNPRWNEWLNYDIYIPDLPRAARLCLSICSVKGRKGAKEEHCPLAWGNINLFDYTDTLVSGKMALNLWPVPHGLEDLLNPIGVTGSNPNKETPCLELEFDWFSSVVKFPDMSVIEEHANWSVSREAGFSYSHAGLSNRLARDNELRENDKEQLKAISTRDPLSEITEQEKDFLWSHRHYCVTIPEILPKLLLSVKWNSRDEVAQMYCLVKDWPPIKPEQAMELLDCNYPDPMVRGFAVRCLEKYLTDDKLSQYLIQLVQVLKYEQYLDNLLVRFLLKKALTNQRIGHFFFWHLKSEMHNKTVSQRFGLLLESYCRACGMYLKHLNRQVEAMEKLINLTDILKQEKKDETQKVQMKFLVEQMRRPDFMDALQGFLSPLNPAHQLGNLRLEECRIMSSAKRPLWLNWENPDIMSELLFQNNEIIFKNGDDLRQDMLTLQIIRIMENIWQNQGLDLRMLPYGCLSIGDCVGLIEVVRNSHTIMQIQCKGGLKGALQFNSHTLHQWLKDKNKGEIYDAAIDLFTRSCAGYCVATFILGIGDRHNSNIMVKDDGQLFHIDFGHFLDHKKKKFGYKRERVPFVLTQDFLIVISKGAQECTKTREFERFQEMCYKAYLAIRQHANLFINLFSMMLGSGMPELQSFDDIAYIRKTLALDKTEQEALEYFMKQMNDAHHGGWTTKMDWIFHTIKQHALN

IC50 (PIK3CA (human) [1]) [µM]	EC50 (PIK3CA (human) [2]) [µM]	Structure (SMILES)
< 1	< 10	CC(=O)Nc1cn2nc(-c3cnc(N)c(-c4cccc(C(F)(F)F)c4)c3)ccc2n1
< 1	< 1	CC(C)(C)OC(=O)N1CCN(c2ccc(C(=O)Nc3cn4cc(-c5cnc(N)c(C(F)(F)F)c5)ccc4n3)cn2)CC1
< 1	< 10	CC(C)(C)OC(=O)NCC(=O)Nc1cn2cc(-c3cnc(N)c(C(F)(F)F)c3)ccc2n1
< 1	< 1	COCCCOc1nc(-c2ccc3nc(NC(C)=O)cn3c2)cnc1N
< 1	< 1	Cc1cc(C(=O)Nc2cn3cc(-c4cnc(N)c(C(F)(F)F)c4)ccc3n2)no1
< 1	< 10	CC(=O)Nc1nc2ccc(-c3cnc(N)c(C(F)(F)F)c3)c(F)c2s1
< 1	< 25	CC(=O)Nc1nc2c(F)cc(-c3cnc(N)c(C(F)(F)F)c3)cc2s1
< 1	< 10	C/C=C/C(=O)Nc1cn2cc(-c3cnc(N)c(C(F)(F)F)c3)ccc2n1
< 1	< 10	Nc1ncc(-c2ccc3nc(NC(=O)CCCN4CCOCC4)cn3c2)cc1C(F)(F)F
< 1	< 25	CC(=O)Nc1cn2cc(-c3cnc(N)nc3)ccc2n1
< 1	< 1	Nc1ncc(-c2ccc3nc(NC(=O)CO[C@H]4CCNC4)cn3n2)cc1C(F)(F)F
< 1	< 1	CC(=O)Nc1cn2nc(-c3cnc(N)c(C(=O)NCCNC(=O)OC(C)(C)C)c3)ccc2n1
< 1		CC(=O)Nc1cn2cc(-c3cnc(N)c(S(=O)(=O)N4CCC(Oc5ccc(F)cc5)CC4)c3)ccc2n1
< 1	< 25	CC(=O)Nc1cn2nc(-c3cnc(N)cc3C(F)(F)F)ccc2n1
< 1	< 25	COC[C@@H]1CCCN1C(=O)Nc1cn2cc(-c3cnc(N)c(C(F)(F)F)c3)ccc2n1
< 1	< 10	COCCOc1nc(-c2ccc3nc(NC(=O)COC)cn3c2)cnc1N
< 1	< 10	CCNN=Cc1cc(-c2ccc3nc(NC(C)=O)cn3c2)cnc1N

IC50 (PIK3CA (human) [1]) [µM]	EC50 (PIK3CA (human) [2]) [µM]	Structure (SMILES)
< 1	< 10	Nc1ncc(-c2ccc3nc(NC(=O)CCCN4CCCCC4)cn3c2)cc1C(F)(F)F
	< 10	Nc1ncc(-c2ccc3nc(NC(=O)[C@@H]4CCCCN4)cn3c2)cc1C(F)(F)F
≥ 25		CC(=O)Nc1cn2c(-c3cnc(N)c(C(F)(F)F)c3)c(-c3cnc(N)c(C(F)(F)F)c3)ccc2n1
	< 25	CC(C)(C)OC(=O)N1CCC1C(=O)Nc1cn2nc(-c3cnc(N)c(C(F)(F)F)c3)ccc2n1 (configuration not stated)
< 10		Nc1ncc(-c2ccc3nc(NC(=O)c4ccccc4C(=O)O)cn3c2)cc1C(F)(F)F
< 1		Nc1ncc(-c2ccc3nc(NC(=O)C4CCCC(=O)N4)cn3c2)cc1C(F)(F)F (configuration not stated)
< 1		CC(=O)Nc1cn2cc(-c3cnc(N)c(O[C@@H](C)C(F)(F)F)n3)cc(F)c2n1
< 10		Nc1cccc(C(=O)Nc2nc3ccc(-c4cnc(N)c(C(F)(F)F)c4)cc3s2)n1
< 1		COc1ccc(C2CCCN2C(=O)Nc2cn3cc(-c4cnc(N)c(C(F)(F)F)c4)ccc3n2)cc1OC (configuration not stated)
< 10		CC(=O)Nc1cn2cc(-c3cnc(N)nc3N)ccc2n1
< 1		CC(=O)Nc1nc2ccc(-c3ccc(NC4CCNCC4)nc3)cc2s1
< 1		Nc1ncc(-c2ccc3nc(NC(=O)C4CCC(=O)NC4)cn3c2)cc1C(F)(F)F (configuration not stated)
< 1		CC(=O)Nc1cn2nc(-c3cnc(N)c(-c4ccccc4Cl)c3)ccc2n1
< 10		CC(=O)Nc1cn2cc(-c3cnc(N)cc3C(F)(F)F)ccc2n1
< 1		CC(=O)Nc1cn2cc(-c3cnc(N)c(Oc4cccc(F)c4)n3)cc(F)c2n1
< 10		Nc1ncc(-c2ccc3nc(NC(=O)N4CCC[C@H]4C(=O)O)cn3c2)cc1C(F)(F)F
< 10		CC(=O)Nc1nc2ccc(-c3ccc(N)nc3)cn2c1Br

The remaining lines, values behind:

Structure (SMILES)	IC50 (PIK3CA (human) [1]) [µM]	EC50 (PIK3CA (human) [2]) [µM]
CN(CC(=O)Nc1cn2cc(-c3cnc(N)c(C(F)(F)F)c3)ccc2n1)C(=O)OC(C)(C)C	< 1	< 10
Nc1ncc(-c2ccc3nc(NC(=O)[C@H]4CCC(=O)O4)cn3c2)cc1C(F)(F)F	< 1	
CC(=O)Nc1nc2ccc(-c3ccc(NC4CCOCC4)nc3)cc2s1	< 1	
CN(C)C1CCN(C(=O)Nc2cn3cc(-c4cnc(N)c(C(F)(F)F)c4)ccc3n2)C1 (configuration not stated)	< 1	< 10
CC(C)(C)OC(=O)NCC(=O)Nc1cn2nc(-c3cnc(N)c(C(F)(F)F)c3)ccc2n1	< 1	< 10
CC(=O)Nc1cn2cc(-c3cnc(N)c(-c4ccccc4C(F)(F)F)c3)ccc2n1	< 1	< 10
CC(=O)Nc1cccc(-c2c(NC(C)=O)nc3ccc(-c4cnc(N)c(C(F)(F)F)c4)cn23)c1	< 1	< 25
CCN1CCCCC1CCC(=O)Nc1cn2nc(-c3cnc(N)c(C(F)(F)F)c3)ccc2n1 (configuration not stated)	< 1	< 1
COc1cc(-c2ccc3nc(NC(C)=O)c(Br)n3c2)cnc1N	< 1	< 10
CC(=O)Nc1cn2cc(-c3cnc(N)c(OC4CCC4)n3)ccc2n1	< 1	< 1
CC(=O)Nc1cn2cc(-c3cnc(N)c(OC(F)F)c3)ccc2n1	< 1	
CC(=O)Nc1cn2cc(-c3cnc(N)c(Oc4ccc(F)cc4)n3)ccc2n1	< 1	< 1
Nc1ncc(-c2ccc3nc(NC(=O)C4CCN4)cn3n2)cc1C(F)(F)F (configuration not stated)	< 1	< 10
Nc1ncc(-c2ccc3nc(NC(=O)Cc4ccccn4)cn3c2)cc1C(F)(F)F	< 1	< 10
CCOCC(=O)Nc1cn2cc(-c3cnc(N)c(C(F)(F)F)c3)ccc2n1	< 1	< 10
CC(=O)Nc1cn2cc(-c3cnc(N)c(C)n3)ccc2n1	< 1	< 10
COCCOc1nc(-c2ccc3nc(NC(C)=O)sc3c2)cnc1N	< 1	< 10
CC(=O)Nc1cn2cc(-c3cnc(N)cn3)ccc2n1	< 1	< 25
Nc1ncc(-c2ccc3nc(NC(=O)C(F)(F)F)cn3c2)cn1	< 1	< 25
CC(=O)Nc1cn2nc(-c3cnc(N)c(OC(F)F)c3)ccc2n1	< 1	< 1
CC(=O)Nc1nc2ccc(-c3cnc(NC(C)=O)c(C(F)(F)F)c3)cc2s1	< 1	
CC(=O)Nc1cn2cc(-c3cnc(N)c(-c4ccc(N5CCOCC5)cc4)c3)ccc2n1	< 10	< 10
CC(C)C(=O)Nc1cn2cc(-c3cnc(N)c(C(F)(F)F)c3)ccc2n1		< 25
COCCOc1nc(-c2ccc3nc(NC(=O)CN4CCCCC4)cn3c2)cnc1N	< 1	< 10
CC(=O)Nc1nc2ccc(-c3cnc(N)c(C(F)(F)F)c3)c(C)c2s1	< 1	< 10
CC(C)(C)OC(=O)N1CC[C@@H](OCC(=O)Nc2cn3nc(-c4cnc(N)c(C(F)(F)F)c4)ccc3n2)C1	< 1	< 1
CC(=O)Nc1nc2ccc(-c3cnc(N)c(Br)c3)cn2c1Br	< 1	< 10
CC(=O)Nc1cn2cc(-c3cnc(N)c(OC4CNC4)n3)ccc2n1	< 1	< 25

Structure (SMILES)	IC50 (PIK3CA (human) [1]) [µM]	EC50 (PIK3CA (human) [2]) [µM]
CC(=O)Nc1cn2cc(-c3cnc(N)c(Oc4ccccc4)n3)ccc2n1	< 1	< 1
COC(=O)C1CCN(C(=O)Nc2cn3cc(-c4cnc(N)c(C(F)(F)F)c4)ccc3n2)C1 (configuration not stated)	< 1	< 10
CC(C)(C)OC(=O)N1CC[C@H]1C(=O)Nc1cn2cc(-c3cnc(N)c(C(F)(F)F)c3)ccc2n1	< 1	< 25
CC(=O)N1CCCC[C@H]1C(=O)Nc1cn2cc(-c3cnc(N)c(C(F)(F)F)c3)ccc2n1		< 25
CC(=O)Nc1cn2cc(-c3cnc(N)c(C(F)(F)F)c3)cc(C)c2n1	≥ 25	
CCN1CCC(Oc2nc(-c3ccc4nc(NC(C)=O)cn4c3)cnc2N)CC1		< 10
Nc1ncc(-c2ccc3nc(NC(=O)c4cccc(-c5nn[nH]n5)c4)cn3c2)cc1C(F)(F)F	< 1	
Nc1ncc(-c2ccc3nc(NC(=O)N4CCCC4c4ccco4)cn3c2)cc1C(F)(F)F (configuration not stated)	< 1	
Nc1ncc(-c2ccc3nc(NC(=O)[C@@H]4CCC(=O)O4)cn3c2)cc1C(F)(F)F	< 1	
NC(=O)[C@@H]1CCCN1C(=O)Nc1cn2cc(-c3cnc(N)c(C(F)(F)F)c3)ccc2n1		< 10
Nc1ccc(-c2ccc3nc(NC(=O)OCCN4CCCCC4)sc3c2)cn1	< 1	
Nc1ncc(-c2ccc3nc(NC(=O)C4CCC(=O)N4)cn3c2)cc1C(F)(F)F (configuration not stated)	< 1	
Nc1ncc(-c2ccc3nc(NC(=O)[C@@H](O)CCC(=O)O)cn3c2)cc1C(F)(F)F	< 1	
Nc1cc(C(=O)Nc2nc3ccc(-c4cnc(N)c(C(F)(F)F)c4)cc3s2)ccn1	< 1	
Nc1ncc(-c2ccc3nc(NC(=O)N4CCCC4c4nccs4)cn3c2)cc1C(F)(F)F (configuration not stated)	< 1	
CC(=O)Nc1cn2nc(-c3cnc(N)c(OCC(F)(F)F)n3)ccc2n1		< 10
COc1ccccc1C1CCCN1C(=O)Nc1cn2cc(-c3cnc(N)c(C(F)(F)F)c3)ccc2n1 (configuration not stated)	< 1	
COCCOc1nc(-c2ccc3nc(NC(C)=O)cn3n2)cnc1N		< 10
N#CN=C(N)NCCCC(=O)Nc1cn2nc(-c3cnc(N)c(C(F)(F)F)c3)ccc2n1	< 1	
CC(=O)Nc1cn2cc(-c3cnc(N)c(O[C@H](C)C(F)(F)F)n3)cc(F)c2n1	< 1	
Nc1ncc(-c2ccc3nc(NC(=O)N4CCCC4Cc4ccccn4)cn3c2)cc1C(F)(F)F (configuration not stated)	< 1	
CCN(CC)CCCc1c(NC(C)=O)nc2ccc(-c3cnc(N)c(C(F)(F)F)c3)cn12	< 10	
CC(=O)Nc1cn2cc(-c3cnc(N)c(Oc4ccc(N5CCN(C(C)C)CC5)cc4)n3)ccc2n1	< 1	
CC(=O)Nc1cn2cc(-c3cnc(N)c(OC4CCNCC4)n3)ccc2n1		< 25
CNC(=O)[C@@H]1CCCN1C(=O)Nc1cn2cc(-c3cnc(N)c(C(F)(F)F)c3)ccc2n1		< 25
CC(=O)N1CCCC[C@@H]1C(=O)Nc1cn2cc(-c3cnc(N)c(C(F)(F)F)c3)ccc2n1	< 10	
CC(=O)Nc1nc2ccc(-c3cnc(N)c(C(F)(F)F)c3)cn2c1C(C)=O	< 10	
